Assays:
Type in all cases: in vivo
[1] = Sensory evaluation of tropical juice drink sweetened with sucrose (5%) and Stevia (25 ppm), with and without phloretin
[2] = Tasting of phloretin in water or model beverage solution of water and citric acid; conditions: tasted in water or in water and citric acid
[3] = Sensory evaluation of strawberry yogurt sweetened with 250 ppm Stevia (SG95), with and without phloretin
[4] = Sensory evaluation of pomegranate juice (POM Brand) sweetened with 150 ppm SG95, with and without phloretin
[5] = Sensory evaluation of tropical flavored soft drink containing 7% sucrose, with and without phloretin
[6] = Phloretin as taste modifier in foods and beverages containing steviol glycosides and rebaudioside
[7] = Sensory assessment of pasteurized sweet water solution of pea protein isolate, with and without phloretin; conditions: 30 ppm phloretin, eight panelists, 0 to 5 scale, Duncan test
Procedure: To evaluate sensory effect of phloretin on pea protein solution Evaluation in blind and randomized conditions of pasteurized sweet water solution of pea protein isolate • 1. Control: no phloretin added • 2. Test: 30 ppm phloretin added (via a presolution 10% in propylene glycol) Weigh and premix protein with sugar (600 gram preparation) Dispersion/solubilisation of protein-sugar-water to obtain a “mother mixture”: disperse mix protein/sugar in water (becher—deionized water 40° C.—Mini Ultra-Turrax T18—Speed 2—time:7 minutes). The same “mother mixture” for both the Control and Test trials. Add phloretin (fresh dilution 10% in propylene Glycol) in Test trial. Split each trials in 2 glass bottles: 100 g for pre-evaluation and generation of sensory attributes—200 gram for sensory assessment Pasteurisation (water bach—95° C.—30 minutes). Cooling bottles at room temperature—Storage in fridge until tasting. Perform Sensory assessment at room temperature. Eight panelists were asked to rate intensity of sensory attributes using a 0 to 5 structured scale (from 0 ‘not perceptible’ to 5 ‘strong intensity’). Sensory descriptors were selected to assess taste, tactile and aromatic stimuli Data treatment was run with XLSTAT software (Duncan mean comparison test). Sensory attributes were selected during a preliminary series of applications evaluated in a free-description mode Symbols for significant differences * at 95% (See FIG. 5). […] Other sensory attributes related to taste (“Sweetness”, “Bitterness”), tactile (mouthcoating) or aromatic stimuli (“cereal”) were unmodified.

[8] = 30 ppm Phloretin, sugar (5%) and Stevia (25 ppm) tropical juice drink, in words
[9] = sensory score, Sucrose (5%) and Stevia (25 ppm) control + Phloretin @ 30 ppm, tropical juice drink
[10] = 20 ppm Phloretin, strawberry yogurt with 250 ppm Stevia, in words
[11] = sensory score, Stevia @250 ppm + 20 ppm Phloretin, strawberry yogurt, n = 29
[12] = 35 ppm Phloretin, pomegranate juice with 150 ppm Stevia, in words
[13] = sensory score, Pom Juice + SG95 @150 ppm + Phloretin @ 35 ppm
[14] = 30 ppm Phloretin, tropical soft drink with 7% sucrose, in words
[15] = sensory score, 7% Sucrose + 30 ppm Phloretin, tropical soft drink

## O=C(CCc1ccc(O)cc1)c1c(O)cc(O)cc1O [Phloretin, 3-(4-hydroxyphenyl)-1-(2,4,6-trihydroxyphenyl)propan-1-one]
[1]; [8]
  astringency, effect of phloretin: significantly reduced
  bitterness, effect of phloretin: significantly reduced
[1]; [9]
  Acidity: 2.93
  Astringency: 1.21
  Bitterness: 0.57
  Long-lasting (sweet): 0.50
  Off-notes: 1.21
  Overall Flavor: 3.71
  Sweetness: 2.29
[2]
  own flavor of phloretin: nearly no flavor on its own
[3]; [10]
  Strawberry flavor intensity versus control: higher
  licorice taste versus control: significantly lower
[3]; [11]
  Acidity: 2.56
  Fruity: 3.25
  Green: 2.38
  Jammy: 3.19
  Licorice: 1.44
  Long Lasting: 2.56
  Strawberry Flavor: 3.56
  Sweetness: 3.38
[4]; [12]
  Bitterness Intensity, effect of phloretin: significantly reduces
  Pomegranate flavor intensity, effect of phloretin: significantly increasing
  Sourness intensity, effect of phloretin: significantly reduces
[4]; [13]
  Astringent: 4.1
  Berry Flv intensity: 6.01
  Bitterness: 3.35
  Pomegranate Flv intensity: 6.68
  Sourness intensity: 4.75
  Sweetness intensity: 5.79
[5]; [14]
  acidity/sourness, effect of phloretin: significantly reduced
  astringency, effect of phloretin: significantly reduced
  bitterness, effect of phloretin: significantly reduced
[5]; [15]
  Acidity/Sourness intensity: 3.27
  Astringency intensity: 2.05
  Bitterness intensity: 1.9
  Mango Flavor intensity: 6.04
  Off-Note intensity: 1.72
  Overall Flavor intensity: 6.76
  Passion Fruit Flavor intensity: 5.69
  Tropical Flavor intensity: 6.55
[6]
  off-note masking: bitterness: reduced bitterness
  off-note masking: licorice: reduced licorice
  off-note masking: linger: reduced linger
[7]
  Sweetness, effect of phloretin: unmodified
  aromatic stimuli (cereal), effect of phloretin: unmodified
  bitterness, effect of phloretin: unmodified
  score in astringency, effect of phloretin: significantly reduce
  score in off-tastes, effect of phloretin: significantly reduce
  tactile (mouthcoating), effect of phloretin: unmodified

Reference: US11291235B2, “Phloretin” (Firmenich SA, priority 2016, dated 2022)
